Results as given in US20230049952A1, “METHODS AND COMPOUNDS FOR RESTORING MUTANT P53 FUNCTION” (PMV Pharmaceuticals, Inc., priority 2020, published 2023).

System: p53 signaling pathway in MT373 tumors
Assay: MT373 syngeneic sarcoma model: mouse p53 signaling pathway profiling panel
Type: in vivo

Structure (SMILES): CCn1c(C#CCNc2ccccc2)cc2cc(CNC3CCN(C)CC3)ccc21 [Compound 1, 1-Anilino-3-{1-ethyl-5-[(1-methyl-4-piperidylamino)methyl]-1H-indol-2-yl}-2-propyne]
- Hif1a fold increase or percent reduction vs vehicle control (75 mg/kg BIDx1, 72 h): 1.19 fold or %
- Il6 fold increase or percent reduction vs vehicle control (75 mg/kg BIDx1, 72 h): 65.67 fold or %
- Jun fold increase or percent reduction vs vehicle control (75 mg/kg BIDx1, 72 h): 25.77 fold or %
- Kras fold increase or percent reduction vs vehicle control (75 mg/kg BIDx1, 72 h): 1.09 fold or %
- Lig4 fold increase or percent reduction vs vehicle control (75 mg/kg BIDx1, 72 h): 1.12 fold or %
- Mdm2 fold increase or percent reduction vs vehicle control (75 mg/kg BIDx1, 72 h): 2.80 fold or %
- Mdm4 fold increase or percent reduction vs vehicle control (75 mg/kg BIDx1, 72 h): 14.78 fold or %
- Mel1 fold increase or percent reduction vs vehicle control (75 mg/kg BIDx1, 72 h): 21.11 fold or %
- Mlh1 fold increase or percent reduction vs vehicle control (75 mg/kg BIDx1, 72 h): 4.80 fold or %
- Msh2 fold increase or percent reduction vs vehicle control (75 mg/kg BIDx1, 72 h): 16.07 fold or %
- Myod1 fold increase or percent reduction vs vehicle control (75 mg/kg BIDx1, 72 h): 2.73 fold or %
- Nf1 fold increase or percent reduction vs vehicle control (75 mg/kg BIDx1, 72 h): 21.43 fold or %
- Nfkb1 fold increase or percent reduction vs vehicle control (75 mg/kg BIDx1, 72 h): 1.73 fold or %
- Pcna fold increase or percent reduction vs vehicle control (75 mg/kg BIDx1, 72 h): 23.22 fold or %
- Pmaip1 fold increase or percent reduction vs vehicle control (75 mg/kg BIDx1, 72 h): 1.03 fold or %
- Ppm1d fold increase or percent reduction vs vehicle control (75 mg/kg BIDx1, 72 h): 5.34 fold or %
- Prc1 fold increase or percent reduction vs vehicle control (75 mg/kg BIDx1, 72 h): 6.02 fold or %
- Prkca fold increase or percent reduction vs vehicle control (75 mg/kg BIDx1, 72 h): 6.98 fold or %
- Pten fold increase or percent reduction vs vehicle control (75 mg/kg BIDx1, 72 h): 3.49 fold or %
- Pttg1 fold increase or percent reduction vs vehicle control (75 mg/kg BIDx1, 72 h): 1.03 fold or %
- Rb1 fold increase or percent reduction vs vehicle control (75 mg/kg BIDx1, 72 h): 3.16 fold or %
- Rela fold increase or percent reduction vs vehicle control (75 mg/kg BIDx1, 72 h): 4.69 fold or %
- Rprm fold increase or percent reduction vs vehicle control (75 mg/kg BIDx1, 72 h): 1.34 fold or %
- Serpinb5 fold increase or percent reduction vs vehicle control (75 mg/kg BIDx1, 72 h): 15.52 fold or %
- Sesn2 fold increase or percent reduction vs vehicle control (75 mg/kg BIDx1, 72 h): 1.11 fold or %
- Sfn fold increase or percent reduction vs vehicle control (75 mg/kg BIDx1, 72 h): 8.30 fold or %
- Sirt1 fold increase or percent reduction vs vehicle control (75 mg/kg BIDx1, 72 h): 5.18 fold or %
- Stat1 fold increase or percent reduction vs vehicle control (75 mg/kg BIDx1, 72 h): 1.58 fold or %
- Tnf fold increase or percent reduction vs vehicle control (75 mg/kg BIDx1, 72 h): 1.28 fold or %
- Traf1 fold increase or percent reduction vs vehicle control (75 mg/kg BIDx1, 72 h): 1.16 fold or %
- Trp53bp2 fold increase or percent reduction vs vehicle control (75 mg/kg BIDx1, 72 h): 7.94 fold or %
- Trp53 fold increase or percent reduction vs vehicle control (75 mg/kg BIDx1, 72 h): 1.11 fold or %
- Bbc3 mRNA increase (75 mg/kg BID×1, 24 h): 1.80 fold
- Birc5 mRNA decrease (75 mg/kg BID×1, 24 h): 45.92%
- Ccng1 mRNA increase (75 mg/kg BID×1, 24 h): 4.63 fold
- Cdc25c mRNA decrease (75 mg/kg BID×1, 24 h): 60.54%
- Cdk1 mRNA decrease (75 mg/kg BID×1, 24 h): 59.92%
- Cdkn1a mRNA increase (75 mg/kg BID×1, 24 h): 5.16 fold
- Chek1 mRNA decrease (75 mg/kg BID×1, 24 h): 52.36%
- Egfr mRNA change (75 mg/kg BID×1, 24 h): 28.18%
- Il6 mRNA change (75 mg/kg BID×1, 24 h): 70.78%
- Mdm2 mRNA increase (75 mg/kg BID×1, 24 h): 2.76 fold
- Sesn2 mRNA increase (75 mg/kg BID×1, 24 h): 2.05 fold
- Zmat3 mRNA increase (75 mg/kg BID×1, 24 h): 4.14 fold
- Apex1 fold increase or percent reduction vs vehicle control (150 mg/kg BIDx1, 8 h): 27.35 fold or %
- Atm fold increase or percent reduction vs vehicle control (150 mg/kg BIDx1, 8 h): 22.22 fold or %
- Atr fold increase or percent reduction vs vehicle control (150 mg/kg BIDx1, 8 h): 27.07 fold or %
- Bag1 fold increase or percent reduction vs vehicle control (150 mg/kg BIDx1, 8 h): 23.32 fold or %
- Bax fold increase or percent reduction vs vehicle control (150 mg/kg BIDx1, 8 h): 1.68 fold or %
- Bbc3 fold increase or percent reduction vs vehicle control (150 mg/kg BIDx1, 8 h): 1.97 fold or %
- Bcl2 fold increase or percent reduction vs vehicle control (150 mg/kg BIDx1, 8 h): 28.71 fold or %
- Bid fold increase or percent reduction vs vehicle control (150 mg/kg BIDx1, 8 h): 12.20 fold or %
- Birc5 fold increase or percent reduction vs vehicle control (150 mg/kg BIDx1, 8 h): 26.07 fold or %
- Brca1 fold increase or percent reduction vs vehicle control (150 mg/kg BIDx1, 8 h): 34.27 fold or %
- Brca2 fold increase or percent reduction vs vehicle control (150 mg/kg BIDx1, 8 h): 36.90 fold or %
- Btg2 fold increase or percent reduction vs vehicle control (150 mg/kg BIDx1, 8 h): 13.04 fold or %
- Casp2 fold increase or percent reduction vs vehicle control (150 mg/kg BIDx1, 8 h): 34.08 fold or %
- Ccnb1 fold increase or percent reduction vs vehicle control (150 mg/kg BIDx1, 8 h): 15.72 fold or %
- Ccne1 fold increase or percent reduction vs vehicle control (150 mg/kg BIDx1, 8 h): 40.62 fold or %
- Ccng1 fold increase or percent reduction vs vehicle control (150 mg/kg BIDx1, 8 h): 6.49 fold or %
- Ccnh fold increase or percent reduction vs vehicle control (150 mg/kg BIDx1, 8 h): 29.12 fold or %
- Cdc25a fold increase or percent reduction vs vehicle control (150 mg/kg BIDx1, 8 h): 34.26 fold or %
- Cdk1 fold increase or percent reduction vs vehicle control (150 mg/kg BIDx1, 8 h): 39.81 fold or %
- Cdk4 fold increase or percent reduction vs vehicle control (150 mg/kg BIDx1, 8 h): 47.61 fold or %
- Cdkn1a fold increase or percent reduction vs vehicle control (150 mg/kg BIDx1, 8 h): 8.66 fold or %
- Cdkn2a fold increase or percent reduction vs vehicle control (150 mg/kg BIDx1, 8 h): 42.49 fold or %
- Chek1 fold increase or percent reduction vs vehicle control (150 mg/kg BIDx1, 8 h): 41.91 fold or %
- Cradd fold increase or percent reduction vs vehicle control (150 mg/kg BIDx1, 8 h): 36.95 fold or %
- Cul9 fold increase or percent reduction vs vehicle control (150 mg/kg BIDx1, 8 h): 26.00 fold or %
- Dapk1 fold increase or percent reduction vs vehicle control (150 mg/kg BIDx1, 8 h): 2.02 fold or %
- Dnmt1 fold increase or percent reduction vs vehicle control (150 mg/kg BIDx1, 8 h): 17.37 fold or %
- E2f1 fold increase or percent reduction vs vehicle control (150 mg/kg BIDx1, 8 h): 27.89 fold or %
- E2f3 fold increase or percent reduction vs vehicle control (150 mg/kg BIDx1, 8 h): 27.45 fold or %
- Egfr fold increase or percent reduction vs vehicle control (150 mg/kg BIDx1, 8 h): 39.84 fold or %
- Egr1 fold increase or percent reduction vs vehicle control (150 mg/kg BIDx1, 8 h): 53.86 fold or %
- Ep300 fold increase or percent reduction vs vehicle control (150 mg/kg BIDx1, 8 h): 11.02 fold or %
- Ercc1 fold increase or percent reduction vs vehicle control (150 mg/kg BIDx1, 8 h): 16.08 fold or %
- Esr1 fold increase or percent reduction vs vehicle control (150 mg/kg BIDx1, 8 h): 14.42 fold or %
- Fadd fold increase or percent reduction vs vehicle control (150 mg/kg BIDx1, 8 h): 31.64 fold or %
- Fas fold increase or percent reduction vs vehicle control (150 mg/kg BIDx1, 8 h): 2.12 fold or %
- Fasl fold increase or percent reduction vs vehicle control (150 mg/kg BIDx1, 8 h): 3.98 fold or %
- Foxo3 fold increase or percent reduction vs vehicle control (150 mg/kg BIDx1, 8 h): 1.15 fold or %
- Gadd45a fold increase or percent reduction vs vehicle control (150 mg/kg BIDx1, 8 h): 23.94 fold or %
- Hif1a fold increase or percent reduction vs vehicle control (150 mg/kg BIDx1, 8 h): 1.07 fold or %
